Results from US20180153995A1, “USE OF ANTIMICROBIAL POLYMERS FOR RE-SENSITIZATION OF MICROORGANISMS UPON EMERGENCE OF RESISTANCE TO ANTI-MICROBIAL AGENTS” (Technion Research & Development Foundation Limited, priority 2008, published 2018).
Where two headings read alike, the source gives them in different places.

Assays:
[1] = system: E. coli 14182; test: Antibiotic MIC by microdilution with or without sub-MIC polymer; assay type: cell-based, Escherichia coli; conditions: polymer at ½ of its MIC
[2] = system: S. maltophila 748; test: as above; assay type: cell-based, Stenotrophomonas maltophila
[3] = system: MRSA 15903; test: microbe, parasite or virus in culture; assay type: cell-based, Staphylococcus aureus
Procedure: The fractionary inhibitory (FIC) concentration index for combinations of two antimicrobial agents was calculated as follows: FIC index=FICA+FICB=A/MICA+B/MICB where A and B are the MIC values of agent A and agent B in the combination, MICA and MICB are the MICs of agent A and agent B alone, and FICA and FICB are the FICs of agent A and agent B.
The FIC indexes were interpreted as follows: less than 0.5 indicates a clear re-sensitizing effect; from 0.5 to 4 indicates a marginal or null re-sensitizing effect; and over 4 indicates antagonism.
Experimental data for FIG. 4 were obtained as follows.

[4] = system: S. aureus 17314; test: Antibiotic MIC by microdilution with or without sub-MIC polymer; assay type: cell-based, Staphylococcus aureus; conditions: S. aureus 17314; +½ MIC (3.12 μM) C16(9-ene)KKNC12KNH2
[5] = system: E. coli 14384; test: as above; assay type: cell-based, Escherichia coli; conditions: E. coli 14384
Procedure: (§1) MICs were determined by microdilution susceptibility testing in 96-well plates (by Nunc) using inocula of 10^5 bacteria per ml. Cell populations were evaluated by optical density measurements at 620 nm and were calibrated against a set of standards. Hundred (100) μl of a bacterial suspension were added to 100 μl of culture medium (control) or to 100 μl of culture medium containing various polymer concentrations in 2-fold serial dilutions. Inhibition of proliferation was determined by optical density measurements at 620 nm after an incubation period of 24 hours at 37° C.
(§2) 100 μl of a bacterial suspension were added to 100 μl of culture medium (control) or to 100 μl of culture medium containing various antibiotic and C14(9-ene)KKNC12KNH2 (SEQ ID NO: 5) concentrations in 2-fold serial dilutions. Inhibition of proliferation was determined by optical density measurements at 620 nm after an incubation period of 24 hours at 37° C.

[6] = system: S. aureus 43300; test: as above; assay type: cell-based, Staphylococcus aureus
Procedure: as §1
Table 8 below presents the MIC values of antibiotics in presence or absence of C12(5-ene)KKNC12KNH2 (SEQ ID NO: 2) at sub-MIC levels of the polymer, as measured for the S. aureus strains 43300 (ATCC), 15819 (clinical isolate), 15877 (clinical isolate) and 15852 (clinical isolate). MICs were determined by microdilution susceptibility testing in 96-well plates (Nunc) using inocula of 10^5 bacteria per ml. One hundred (100) μl of a bacterial suspension were added to 100 μl of culture medium (control) or to 100 μl of culture medium containing various antibiotic and C12(5-ene)KKNC12KNH2 (SEQ ID NO: 2) concentrations in 2-fold serial dilutions. Inhibition of proliferation was determined by optical density measurements at 620 nm after an incubation period of 24 hours at 37° C.
as §2

[7] = system: E. coli K-12 resistant wild type; assay type: cell-based, Escherichia coli; conditions: E. coli AG100 (w.t.)
[8] = system: E. coli 16327; test: microbe, parasite or virus in culture; conditions: for Antibiotic MIC: E. coli 16327
Procedure: as §1, §2

[9] = system: S. aureus 43300; test: Antibiotic MIC by microdilution with or without sub-MIC polymer; assay type: cell-based, Staphylococcus aureus; remark: listed apart in the source
[10] = +¼ MIC (1.6 μM) C14(9-ene)KKNC12KNH2
[11] = +½ MIC (3.12 μM) C14(9-ene)KKNC12KNH2
[12] = +⅓ MIC (2.1 μM) C14(9-ene)KKNC12KNH2
[13] = +¼ MIC (1.6 μM) C16(9-ene)KKNC12KNH2
[14] = +½ MIC (3.12 μM) C16(9-ene)KKNC12KNH2
[15] = +⅓ MIC (2.1 μM) C16(9-ene)KKNC12KNH2

Substance: gentamicin
- Antibiotic MIC in presence of C12K(NC8K)7NH2 (SEQ ID NO: 4), +½ MIC [1]: 64 to 128 µg/mL
- Antibiotic MIC ([2]; +¼ MIC (1.6 μM) C12K(KNC12K)3NH2): 16 µg/mL
- Antibiotic MIC ([2]; +½ MIC (3.12 μM) C12K(KNC12K)3NH2): 8 µg/mL
- Antibiotic MIC ([2]; +⅓ MIC (2.1 μM) C12K(KNC12K)3NH2): 16 µg/mL
- Antibiotic MIC ([2]; no polymer (None), Table 13): 16 µg/mL
- MIC ([3]; MRSA 15903, +¼ polymer MIC (1.6 μM) NC12(KNC12K)2NH2): 128 µg/mL
- MIC ([3]; MRSA 15903, +½ polymer MIC (3.1 μM) NC12(KNC12K)2NH2): 128 µg/mL
- MIC ([3]; MRSA 15903, +⅓ polymer MIC (2.1 μM) NC12(KNC12K)2NH2): 128 µg/mL
- MIC ([3]; S. aureus CI-15903, +polymer (½ MIC) C12(5-ene)KKNC12KNH2): 128 µg/mL
- MIC ([3]; S. aureus CI-15903, +polymer (⅓ MIC) C12(5-ene)KKNC12KNH2): 128 µg/mL
- Antibiotic MIC [4]: 64 µg/mL
- Antibiotic MIC [5, 10]: 4 µg/mL
- Antibiotic MIC [5, 11]: 2 µg/mL
- Antibiotic MIC ([5]; +½ MIC C12K(NC8K)5NH2): 1 to 2 µg/mL
- Antibiotic MIC [5, 12]: 4 µg/mL
- Antibiotic MIC, None ([5]; antibiotic alone (Table 15)): 4 µg/mL
- Antibiotic MIC ([5]; no polymer (None), Table 9): 4 µg/mL
- Antibiotic MIC ([5]; no polymer (None), Table 14): 4 µg/mL
- Antibiotic MIC in presence of C12K(NC8K)7NH2 (SEQ ID NO: 4), +¼ MIC ([5]; polymer at ¼ of its MIC): 4 µg/mL
- Antibiotic MIC in presence of C12K(NC8K)7NH2 (SEQ ID NO: 4), +½ MIC ([5]; polymer at ½ of its MIC): 2 µg/mL
- Antibiotic MIC in presence of C12K(NC8K)7NH2 (SEQ ID NO: 4), +⅓ MIC ([5]; polymer at ⅓ of its MIC): 2 to 4 µg/mL
- Antibiotic MIC [6, 10]: 64 to 128 µg/mL
- Antibiotic MIC [6, 11]: 64 to 128 µg/mL
- Antibiotic MIC [6, 12]: 64 to 128 µg/mL
- Antibiotic MIC ([6]; no polymer (None), Table 9): 64 to 128 µg/mL
- Antibiotic MIC ([6]; no polymer (None), Table 10): 64 µg/mL
- Antibiotic MIC, None ([7]; antibiotic alone (Table 16)): 4 to 8 µg/mL
- Antibiotic MIC, None ([7]; antibiotic alone (Table 17)): 4 to 8 µg/mL
- Antibiotic MIC in presence of C12K(NC8K)7NH2 (SEQ ID NO: 4), +¼ MIC ([7]; polymer at ¼ of its MIC (Table 16)): 4 µg/mL
- Antibiotic MIC in presence of C12K(NC8K)7NH2 (SEQ ID NO: 4), +½ MIC ([7]; polymer at ½ of its MIC (Table 16)): 2 µg/mL
- Antibiotic MIC in presence of C12K(NC8K)7NH2 (SEQ ID NO: 4), +⅓ MIC ([7]; polymer at ⅓ of its MIC (Table 16)): 4 µg/mL
- Antibiotic MIC in presence of the OAK, +¼ MIC ([7]; the OAK at ¼ of its MIC (Table 17)): 4 µg/mL
- Antibiotic MIC in presence of the OAK, +½ MIC ([7]; the OAK at ½ of its MIC (Table 17)): 4 µg/mL
- Antibiotic MIC in presence of the OAK, +⅓ MIC ([7]; the OAK at ⅓ of its MIC (Table 17)): 4 µg/mL
- Antibiotic MIC ([8]; +¼ MIC (1.6 μM) C12K(KNC12K)2NH2): 8 µg/mL
- Antibiotic MIC [8, 10]: 4 µg/mL
- Antibiotic MIC [8, 13]: 4 µg/mL
- Antibiotic MIC ([8]; +½ MIC (3.12 μM) C12K(KNC12K)2NH2): 4 µg/mL
- Antibiotic MIC [8, 11]: 2 µg/mL
- Antibiotic MIC [8, 14]: 4 µg/mL
- Antibiotic MIC ([8]; +⅓ MIC (2.1 μM) C12K(KNC12K)2NH2): 8 µg/mL
- Antibiotic MIC [8, 12]: 4 µg/mL
- Antibiotic MIC [8, 15]: 4 µg/mL
- Antibiotic MIC ([8]; no polymer (None), Table 9): 4 µg/mL
- Antibiotic MIC ([8]; no polymer (None), Table 10): 4 µg/mL
- Antibiotic MIC ([8]; no polymer (None), Table 12): 8 µg/mL
- MIC, Alone ([8]; E. coli U16327, antibiotic alone (Table 22)): 4 µg/mL
- MIC, ¼ + MIC OAK ([8]; E. coli U16327, with C12K(KNC10K)3NH2 (SEQ ID NO: 10) at ¼ of its MIC): 4 µg/mL
- MIC, ½ + MIC OAK ([8]; E. coli U16327, with C12K(KNC10K)3NH2 (SEQ ID NO: 10) at ½ of its MIC): 2 to 4 µg/mL
- MIC, ⅓ + MIC OAK ([8]; E. coli U16327, with C12K(KNC10K)3NH2 (SEQ ID NO: 10) at ⅓ of its MIC): 4 µg/mL
- Antibiotic MIC, None ([8]; E. coli U-16327, antibiotic alone (Table 15)): 4 µg/mL
- Antibiotic MIC in presence of C12K(NC8K)7NH2 (SEQ ID NO: 4), +¼ MIC ([8]; E. coli U-16327, polymer at ¼ of its MIC): 4 µg/mL
- Antibiotic MIC in presence of C12K(NC8K)7NH2 (SEQ ID NO: 4), +½ MIC ([8]; E. coli U-16327, polymer at ½ of its MIC): 1 to 2 µg/mL
- Antibiotic MIC in presence of C12K(NC8K)7NH2 (SEQ ID NO: 4), +⅓ MIC ([8]; E. coli U-16327, polymer at ⅓ of its MIC): 2 µg/mL
- Antibiotic MIC [9, 13]: 64 µg/mL
- Antibiotic MIC [9, 14]: 32 to 64 µg/mL
- Antibiotic MIC [9, 15]: 64 µg/mL
